According to a melting point compilation (Tetko et al.):

SMILES | melting point
OCC1OC(OC2OC(CO)C(O)C(O)C2O)C(O)C(O)C1O (centres undefined) | 203 °C
CC(C)(C)c1cc(C(=S)NC2CCCCC2)cc(C(C)(C)C)c1O | 217 to 218 °C
COC(=O)c1csc2c(C(F)(F)F)cc(Cl)nc12 | 110 to 111 °C
CC(CCC(=O)O)C1CCC2C3CC(O)C4=CC(O)CCC4(C)C3CCC12C (centres undefined) | 200 to 201 °C
Fc1ccc(Br)c(CBr)c1 | 35 °C
O=C(O)C=C(Br)C(=O)O | 184 °C
CC(=O)Nc1cc(NC(C)=O)c(C=Cc2ccccc2)c(NC(C)=O)c1C=Cc1ccccc1 | 330 °C
C(=C(/c1ccccc1)c1nc2ccccc2s1)/c1ccccc1 | 109 °C
COc1cccc2cc(C(=O)C3CC(C)(c4c(C)cc(C)cc4C)C3)oc12 (centres undefined) | 96 to 97 °C
NCc1cc(=O)[nH]o1 | 175 °C
CC(C)(C)OC(=O)NCc1ncccc1F | 56 to 58 °C
NNc1ccccn1 | 46.6 °C
FC(F)(F)C(F)(F)C(F)(F)C(F)(F)C(F)(F)I | -50 °C
C1C2CC3CC1CC(C2)C3 | 267 °C
CC(CO)(CO)CO | 204 °C
COc1ccc(C(=O)c2noc(-c3ccc([N+](=O)[O-])cc3)c2S(=O)(=O)c2ccccc2)cc1 | 176 °C
O=C(O)Cc1ccc2c(c1)OCO2 | 128 to 132 °C
O=C(C1=NOC2C(=O)N(c3ccc(O)cc3)C(=O)C12)c1ccc([N+](=O)[O-])cc1 (centres undefined) | 213 °C
C=CCc1ccc(OC(C)=O)c(OC)c1 | 30.5 °C
CCCCCC(=O)OCC | -67 °C
FC(F)(F)c1cnc(S)c(Cl)c1 | 145 to 149 °C
Cc1cc(I)cnc1Br | 45 °C
O=C(/C(=N/Nc1cccnc1)C(=O)C(F)(F)F)c1cccs1 | 150 °C
CC1CC2C3CCC4=CC(=O)C=CC4(C)C3C(=O)CC2(C)C1(O)C(=O)CO (centres undefined) | 202 °C

SMILES | melting point
CCCCCCNC(=O)c1ccc(O)c(O)c1 | 140 °C
c1ccc(Nc2nc(N3CCOCC3)nc(N3CCOCC3)n2)cc1 | 173 °C
O=C(C=NNc1ccccc1)c1ccc(C(=O)C=NNc2ccccc2)c([N+](=O)[O-])c1 | 100 °C
CCCCCCCCCCCCCC=CC(O)C(CO)NC(C)=O (centres undefined) | 93 to 96 °C
CC1=C(C=NO)C(=O)C(C(C)C)C=C1 (centres undefined) | 146 °C
CC(C1CC1)C(O)(Cn1cncn1)c1ccc(Cl)cc1 (centres undefined) | 108 °C
CCCCCCCCCCCCCCCCC1CCCCC1 | 33.6 °C
Cc1nc2ccccc2nc1-c1cc(-c2nc3ccccc3nc2C)c([N+](=O)[O-])cc1[N+](=O)[O-] | 239 °C
O=C1CNCCN1 | 132 °C
CNc1nnc(S)s1 | 190 to 193 °C
COC(=O)/C=C(/C(=O)OC)N(Nc1ccccc1N=Nc1ccccc1)c1ccccc1 | 153 to 154 °C
NS(=O)(=O)c1cc2c(cc1Cl)NC(C1CC3C=CC1C3)NS2(=O)=O (centres undefined) | 234 °C
CC(=O)O[C@H]1[C@H](OC(C)=O)[C@@H](S(=O)(=O)c2ccccc2)OC[C@H]1OC(C)=O | 145 to 148 °C
O=C=Nc1ccc(I)cc1 | 45 °C
c1ccc2c(c1)cc1c3ccccc3c3cccc4ccc2c1c43 | 234 °C
O=c1c(C2CC(c3ccc(-c4ccccc4)cc3)Cc3ccccc32)c(O)oc2ccccc12 (centres undefined) | 213 °C
Cc1ccc2c(c1C)CCC1C2CCC2CCCCC21C (centres undefined) | 156 °C
O=C(NCc1ccccc1)C(C(F)(F)F)C(F)(F)F | 194 °C
CCCSc1ncccc1C(=O)O | 161 °C
CCOC(=O)CCN(Cc1ccccc1)SN(C)C(=O)ON=C(C)SC | 47 °C
O=[N+]([O-])c1ccc(N=Nc2ccc(Nc3ccccc3)cc2)cc1 | 160 °C
CSc1cnccn1 | 44 to 47 °C
COc1ccc(-c2cc(NN=c3c(C(F)(F)F)nc4ccccc4[nH]c3=O)[nH]n2)cc1 | 154 °C
CCCCNCC(O)c1ccc(O)cc1 (centres undefined) | 124 °C

Other lines, results leading:

melting point | SMILES
74 to 78 °C | O=Cc1ccc(OCc2c(F)cccc2Cl)cc1
236 °C | CN(C)c1ccc(N=Nc2ccc([N+](=O)[O-])cc2)cc1
193 °C | CCN(CC)S(=O)(=O)c1ccc(C(=O)O)cc1
218 °C | CSc1nc(NS(=O)(=O)c2ccc(C)cc2)c(C#N)c(-c2ccc(Cl)cc2)c1Br
68 to 70 °C | Cc1ccc(S(=O)(=O)OCC(C)OS(=O)(=O)c2ccc(C)cc2)cc1 (centres undefined)
187 °C | O=C1CCCC1C1(O)C(=O)Nc2ccccc21 (centres undefined)
133 °C | C=Cc1cccc(C(N)=O)c1
340 °C | O=C1c2ccc(O)c(O)c2C(=O)c2ccc(O)c(O)c21
193 °C | Nc1ncc(Cl)cc1[N+](=O)[O-]
31 °C | O=Cc1ccc(F)c(Br)c1
101 to 104 °C | CN(C(=S)Cl)c1ccc(Br)cc1
55 to 59 °C | CC(=O)c1c(-c2ccc(Cl)cc2Cl)noc1C
138 to 140 °C | NS(=O)(=O)C=Cc1ccccc1
114 to 116 °C | O=S(=O)(Cl)c1ccc(Oc2ccccc2)nc1
149 to 154 °C | O=C1c2ccccc2C(=O)N1CBr
164 °C | COc1ccc(-n2nc(C(=O)c3cccs3)sc2=N)cc1
220 °C | O=c1[nH]nc2oc3ccccc3cc1-2
10 °C | Cc1ccccc1S(=O)(=O)Cl
135 °C | O=C(O)c1cc(F)ccc1[N+](=O)[O-]
45 to 47 °C | O=C(O)CCCc1ccc(F)cc1
181 °C | N#Cc1ccc(C(c2ccc(C#N)cc2)n2cncn2)cc1

melting point | SMILES
171 to 173 °C | CC(=O)Nc1ccc(C(=O)C2CCNCC2)cc1
65.5 to 67.5 °C | OCc1ccnc(Cl)c1
45 °C | C#Cc1ccc(Cl)cc1
88 °C | COc1ccc2c(c1)OC(c1ccccc1)CC2=O (centres undefined)
169 °C | CNS(=O)(=O)Cc1ccc2[nH]cc(CCN(C)C)c2c1
206 °C | O=C1c2ccccc2C(=O)c2cc(Br)ccc21
190 to 195 °C | Cc1ccccc1NC(N)=O
245 to 247 °C | O=C(O)c1cncc(C#Cc2ccccc2)c1
257 to 260 °C | O=C(O)c1cc2cc(Br)ccc2o1
70 to 73 °C | CN(C)S(=O)(=O)Oc1ccc(C#N)cc1
90 to 92 °C | Cc1c(C(=O)Cl)cnn1-c1ccc(F)cc1
227 to 229 °C | O=C(O)c1ccc(Cn2cncn2)cc1
107 to 108 °C | COC(=O)c1sc2ccccc2c1N
213 to 214 °C | COc1ccc(-n2c(SC)nc3nc(SC)n(C)c3c2=O)cc1
130 °C | O=Cc1ccc(OCc2ccc([N+](=O)[O-])cc2)cc1
114 to 116 °C | SC1=NNC(c2ccccn2)S1 (centres undefined)
110 °C | O=Nc1c(O)ccc2ccccc12
150 to 152 °C | COc1ccc(OC)c(S(N)(=O)=O)c1
42 °C | Cc1ccc(C(C)CCC(=O)O)cc1 (centres undefined)
58 °C | COc1c(Cl)cccc1[N+](=O)[O-]
